Results reported in patent publication US20230165970A1, “COMPOSITIONS AND METHODS FOR THE TREATMENT OF BACTERIAL INFECTIONS” (priority 2017, published 2023).
Converted amounts (≈) assume the structure as drawn. Where two headings read alike, the source gives them in different places. *1 amine or outer side, *2 acyl side, *3 side chain or, on linkers, in order; H or OH if unused. Where a SMILES comes first, the peptide text is derived from it. Bridges are numbered along the chain shown (N, C = ends). Roman numbers before positions name the chains, in order. [ ]: non-standard residue; d: D form. The star is where a group is joined. X5 = C#CCOCCOCCOCCOCCN1C[C@@H](C(=O)[*:1])[C@H](C(=O)[*:2])C1; X2 = O=C([C@@H](N[*:1])[C@H](O)CCC(F)(F)F)[*:2]; Propargyl(OCH2CH2)4CO = C#CCOCCOCCOCCOCCC(=O)*; X3 = CCCCC[C@@H](O)[C@H](N[*:1])C(=O)[*:2]; azaDab = NCCN(N[*:1])C(=O)[*:2]; Aoc(2) = CCCCCC[C@H](N)C(=O)O; hLeu = CC(C)CC[C@H](N)C(=O)O; Nle = CCCC[C@H](N)C(=O)O; Dab = NCC[C@H](N)C(=O)O; azaGly = NNC(=O)O

What was measured:
Ec 2469 = format: cell-based, Escherichia coli
How it was run: (§1)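 Twofold dilution series of each agent received bacterial cells from MHA plates (saline, ~0.1 OD600 nm), with RPMI B medium used for drug conjugates. Plates were shaken and held at 35° C overnight (16-20 h). LES431 was tested in presence and absence of 50% heat-inactivated fetal bovine serum.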

Ec 25922 = format: cell-based, Escherichia coli; details: for MIC in RPMI EC 25922: pH 7.4
How it was run: as §1

Kp 10031 = format: cell-based, Klebsiella pneumoniae
How it was run: as §1

Kp 43816 = format: cell-based, Klebsiella pneumoniae
How it was run: as §1

Kp 6951 (COL^R) = format: cell-based, Klebsiella pneumoniae; details: Kp 6951 (COL^R); media CA-MHB
How it was run: as §1

A. baumannii AB5075 [1] = format: cell-based
Experimental: (§2) Overnight stationary-phase cultures were centrifuged at 3,500×g for 10 min at room temperature and resuspended in 1×PBS to an optical density at 600 nm (OD600) of 0.4 (1×10^8 colony forming units [CFU]/ml) in RPMI with L-glutamine and phenol red (Life Technologies). Bacteria were diluted 1:25 in RPMI ([…]) and 10 ul added to wells of a non-binding 96-well plate (Corning 3641) containing 80 ul of 50% hirudin anti-coagulated blood (complement active) in RPMI. […] MBC was defined as the minimum conjugate concentration required for bacterial clearance (Table 8A and Table 8B). An untreated growth control (40% blood, 0 ug/ml conjugate) was included in all assays as a growth comparator.
(§3) MBC was defined as the minimum compound concentration required for complete bacterial clearance (Table 18).
(§4) In most cases, 2-4 fold improvements in antibacterial activity for the conjugates are observed in the presence of complement active human blood.

P. aeruginosa PAO1 = format: cell-based
Experimental: as §2, §3, §4

E. coli ATCC 25922 = format: cell-based
Experimental: as §2, §3, §4

Sa RN = format: cell-based
A. baumannii AB5075 [2] = assay: Murine pneumonia model vs. A. baumannii AB5075 (survival); format: in vivo, C57BI/6J mice; details: 1×10^8 CFU; for protection against lethal challenge (survival monitored 5 days): 5 mg/kg IV twice at t=+1 h and +4 h, n=5 (FIG. 118)
Experimental: (§5) The murine pneumonia model was adapted from Lin et al., 2015 (PMID: 26288841). A. baumannii AB5075 was grown to log-phase in LB at 37° C., 200 rpm shaking. Bacteria were washed once with PBS via centrifugation at 4,000 rpm. Bacteria were adjusted to the desired concentration in PBS.
Prior to infection, 8-week-old female C57BI/6J mice (Jackson Labs) were anesthetized with 100 mg/kg ketamine and 10 mg/kg xylazine. Using an otoscope, mice were infected non-invasively directly into the trachea.
Mice were infected with 5×10^7 CFU in 30 μL of PBS. Mice were treated intraperitoneally with different doses of conjugate 23 or hIgG1 (50 mpk) at t=−12 h pre-infection and t=+1 h post-infection or with colistin (10 mpk) or PBS at t=+1 h, 5 h, 24 h, 36 h, 48 h and 60 h post-infection.
Survival of mice (n=5 per group) was monitored for 5 days. […] Colistin was used as positive control resulting in 80% protection.
as §5, with “PBS. Prior to infection, 8-week-old female C57BI/6J mice (Jackson Labs) were anesthetized with 100 mg/kg ketamine and 10 mg/kg xylazine. Using an otoscope, mice were infected non-invasively directly into the trachea.” for “PBS.”
Mice were infected with 5×10^7 CFU in 30 μL of PBS. Mice were treated intraperitoneally with conjugate 34 or hIgG1 (50 mpk) at t=−12 h pre-infection.
Survival of mice (n=4 per group) was monitored for 5 days. A single dose of ADC conjugate 34 was protective (75% survival) against a lethal challenge with A. baumannii AB5075.
The murine pneumonia model was adapted from Lin et al., 2015 (PMID: 26288841). A. baumannii AB5075 was grown to log-phase in LB at 37° C., 200 rpm shaking. Bacteria were washed once with PBS via centrifugation at 4,000 rpm. Bacteria were adjusted to desired concentration in PBS. […]
The survival (n=5 per group) was monitored twice daily for 5 days. […]

Row | SMILES | MIC (Ec 2469) | MIC (Ec 25922) | MIC in RPMI EC 25922 (Ec 25922) | MIC (Kp 10031) | MIC (Kp 43816) | MIC (Kp 6951 (COL^R)) | MBC in blood AB 5075 (A. baumannii AB5075 [1]) | MBC in blood PA 01 (P. aeruginosa PAO1) | MBC in blood EC 25922 (E. coli ATCC 25922) | MIC (Sa RN) | MIC (Ec 2469; Ec 2469, media CA-MHB) | MIC (Ec 25922; Ec 25922 + FBS (50%, heat-inactivated), media CA-MHB) | MIC (Ec 25922; Ec 25922, media CA-MHB) | MIC (Kp 10031; Kp 10031, media CA-MHB) | MIC (Kp 43816; Kp 43816, media CA-MHB) | protection against lethal challenge (survival monitored 5 days) (A. baumannii AB5075 [2]) | survival (monitored 5 days) (A. baumannii AB5075 [2]; 10 mg/kg IV twice at t=+1 h and +4 h, n=5 (FIG. 119))
1 | C#CCOCCOCCOCCOCCC(=O)N[C@@H](CCC(C)C)C(=O)N[C@@H](CCN)C(=O)N[C@H](C(=O)NN(CCN)C(=O)N[C@H]1CCNC(=O)[C@H]([C@@H](C)O)NC(=O)[C@H](CCN)NC(=O)[C@H](CCN)NC(=O)[C@H](CC(C)C)NC(=O)[C@@H](Cc2ccccc2)NC(=O)[C@H](CCN)NC1=O)[C@@H](C)O [Int-127] ({Propargyl(OCH2CH2)4CO}-[hLeu][Dab]T[azaDab][Dab][Dab][dF]L[Dab][Dab]T; lactam 5-C) | 1 µg/mL (≈ 0.697 µM) | 1 µg/mL (≈ 0.697 µM) | 1.00 µg/mL (≈ 0.697 µM) | 1 µg/mL (≈ 0.697 µM) | 1 µg/mL (≈ 0.697 µM) | >128 µg/mL | 0.1 µg/mL (≈ 0.0697 µM) | 0.1 µg/mL (≈ 0.0697 µM) | 0.025 µg/mL (≈ 0.0174 µM) | >128 µg/mL | – | – | – | – | – | – | –
2 | C#CCOCCOCCOCCOCCN1C[C@@H](C(=O)N[C@@H](CCCC)C(=O)N[C@@H](CCN)C(=O)N[C@H](C(=O)NNC(=O)N[C@H]2CCNC(=O)[C@H]([C@@H](C)O)NC(=O)[C@H](CCN)NC(=O)[C@H](CCN)NC(=O)[C@H](CC(C)C)NC(=O)[C@@H](Cc3ccccc3)NC(=O)[C@H](CCN)NC2=O)[C@@H](C)O)[C@H](C(=O)N[C@@H](CCCC)C(=O)N[C@@H](CCN)C(=O)N[C@H](C(=O)NNC(=O)N[C@H]2CCNC(=O)[C@H]([C@@H](C)O)NC(=O)[C@H](CCN)NC(=O)[C@H](CCN)NC(=O)[C@H](CC(C)C)NC(=O)[C@@H](Cc3ccccc3)NC(=O)[C@H](CCN)NC2=O)[C@@H](C)O)C1 [Int-120] (I: [Nle][Dab]T[azaGly][Dab][Dab][dF]L[Dab][Dab]T / II: [Nle][Dab]T[azaGly][Dab][Dab][dF]L[Dab][Dab]T; lactam I:5-I:C, II:5-II:C; linker I:N-II:N via X5) | – | – | – | – | – | 8 µg/mL (≈ 3.07 µM) | – | – | – | >128 µg/mL | 2 µg/mL (≈ 0.767 µM) | 0.25 µg/mL | 2 µg/mL (≈ 0.767 µM) | 2 µg/mL (≈ 0.767 µM) | 2 µg/mL (≈ 0.767 µM) | – | –
3 | C#CCOCCOCCOCCOCCC(=O)N[C@@H](CCCCCC)C(=O)N[C@@H](CCN)C(=O)N[C@H](C(=O)N[C@@H](CCN)C(=O)N[C@H]1CCNC(=O)[C@H]([C@@H](C)O)NC(=O)[C@H](CCN)NC(=O)[C@H](CCN)NC(=O)[C@H](CC(C)C)NC(=O)[C@@H](Cc2ccccc2)NC(=O)[C@H](CCN)NC1=O)[C@H](O)CCC(F)(F)F [Int-118] ({Propargyl(OCH2CH2)4CO}-[Aoc(2)][Dab][X2][Dab][Dab][Dab][dF]L[Dab][Dab]T; lactam 5-C) | 1 µg/mL (≈ 0.654 µM) | 1 µg/mL (≈ 0.654 µM) | 0.95 µg/mL (≈ 0.621 µM) | 2 µg/mL (≈ 1.31 µM) | 2 µg/mL (≈ 1.31 µM) | – | 0.025 µg/mL (≈ 0.0164 µM) | >0.2 µg/mL | 0.05 µg/mL (≈ 0.0327 µM) | >128 µg/mL | – | – | – | – | – | 40% | –
4 | C#CCOCCOCCOCCOCCC(=O)N[C@@H](CCC(C)C)C(=O)N[C@@H](CCN)C(=O)N[C@H](C(=O)NNC(=O)N[C@H]1CCNC(=O)[C@H]([C@@H](C)O)NC(=O)[C@H](CCN)NC(=O)[C@H](CCN)NC(=O)[C@H](CC(C)C)NC(=O)[C@@H](Cc2ccccc2)NC(=O)[C@H](CCN)NC1=O)[C@H](O)CCCCC [Int-116] ({Propargyl(OCH2CH2)4CO}-[hLeu][Dab][X3][azaGly][Dab][Dab][dF]L[Dab][Dab]T; lactam 5-C) | 2 µg/mL (≈ 1.38 µM) | 2 µg/mL (≈ 1.38 µM) | 1.05 µg/mL (≈ 0.726 µM) | 2 µg/mL (≈ 1.38 µM) | 2 µg/mL (≈ 1.38 µM) | >128 µg/mL | 0.05 µg/mL (≈ 0.0346 µM) | >0.2 µg/mL | 0.2 µg/mL (≈ 0.138 µM) | >128 µg/mL | – | – | – | – | – | fully protective | –
5 | C#CCOCCOCCOCCOCCC(=O)N[C@@H](CCCCCC)C(=O)N[C@@H](CCN)C(=O)N[C@H](C(=O)NN(CCN)C(=O)N[C@H]1CCNC(=O)[C@H]([C@@H](C)O)NC(=O)[C@H](CCN)NC(=O)[C@H](CCN)NC(=O)[C@H](CC(C)C)NC(=O)[C@@H](Cc2ccccc2)NC(=O)[C@H](CCN)NC1=O)[C@@H](C)O [Int-129] ({Propargyl(OCH2CH2)4CO}-[Aoc(2)][Dab]T[azaDab][Dab][Dab][dF]L[Dab][Dab]T; lactam 5-C) | 2 µg/mL (≈ 1.38 µM) | 1 µg/mL (≈ 0.691 µM) | – | 2 µg/mL (≈ 1.38 µM) | 2 µg/mL (≈ 1.38 µM) | – | – | – | – | >128 µg/mL | – | – | – | – | – | – | 60%
